Test results from patent US5530110A, “4-ethoxy-5-fluoro-2'-deoxyuridine” (City of Hope, priority 1994, dated 1996).
Where two headings read alike, the source gives them in different places.

How the values were obtained:
thymidylate synthase = conditions: via kinase and deamination to FdUMP; in words; cited from earlier work
[1] = Relative partition coefficients between 0.1M phosphate buffer, pH 7.0 and 1-octanol; type: physicochemical; conditions: for logD: phosphate buffer / 1-octanol
DNA 5-methylcytosine = conditions: in words; cited from earlier work
cellular DNA = conditions: cited from earlier work
CCRF-CEM cells = assay: Cytostatic activity (growth inhibition) of CCRF-CEM cells in culture; type: cell-based; conditions: Homo sapiens, 96 h
Experimental: Cell culture and cytostatic activity (growth inhibition): The human T-cell line CCRF-CEM was obtained from J. S. Holcenberg, Childrens Hospital of Los Angeles. Maintenance of cultures in RPMI 1640 medium and growth inhibition assays were carried out as previously described^24 except that iron-supplemented bovine calf serum was used routinely in place of dialyzed fetal bovine serum and inhibition of cell growth was based on the culture densities after four days without dilution of the cultures. […] Culture densities were also determined after three days to check that the cell growth continued in cultures without cytotoxic agents.
CCRF- CEM cells were a gift from Dr. John Holcenberg and were grown in suspension as previously described.

[2] = Hydrolysis of the alkoxy derivatives to FdU in aqueous solution; type: physicochemical; conditions: for conversion to FdU in aqueous solution / dependence of hydrolysis rate on hydroxide concentration: in words; for dependence of hydrolysis rate on hydroxide concentration: data not shown; for half-life at 150 µM: pH 11, 25°, 1.5×10^-4 M in unbuffered deionized water adjusted with NaOH or HCl, read-out: conversion half life (4→1) (converted)
Experimental: In aqueous solution, the 4-alkoxy derivatives (4) are converted to FdU (1). […] The reaction is both acid and base catalyzed. At pH 11, the half lives for the conversion are 3.3 and 12.5 hours, respectively for the methoxy (4a) and ethoxy (4b) derivatives.
Hydrolysis of the alkoxy derivatives (4a and 4b) Solutions of 4-methoxy (4a) and 4-ethoxy,5-fluoro, 2'-deoxyuridine (4b) (1.5×10^-4 M) were prepared in unbuffered, deionized water. The pH of the solutions was adjusted with the addition of 1N NaOH or 1N HCl. […] The UV spectrum obtained upon completion of the hydrolysis in both with both compounds 4a and 4b are indistinguishable from FdU^9. […] (data not shown).

[3] = system: plasma thymidine phosphorylase; conditions: in words; cited from earlier work
[4] = AZT over dT; cited from earlier work
[5] = system: human erythrocytes and lymphocytes; conditions: in words; cited from earlier work
[6] = 0.1M phosphate buffer, pH 7.0 / 1-octanol, read-out: relative partition coefficient (converted)
[7] = CCRF-CEM growth inhibition, four days, triplicate wells, read-out: EC50

| SMILES | logD [1, 6] | EC50 (CCRF-CEM cells; [7]) | dependence of hydrolysis rate on hydroxide concentration [2] | half-life at 150 µM [2] | lipophilicity relative to FdU ([1]; pH 7) | conversion to FdU in aqueous solution [2] | catabolism via plasma thymidine phosphorylase [3] | also measured |
| --- | --- | --- | --- | --- | --- | --- | --- | --- |
| Nc1nc(=O)n([C@H]2C[C@H](O)[C@@H](CO)O2)cc1F [FdC (5), 5-Fluoro, 2'-deoxycytidine] | -1.55 | 6.9 nM |  |  |  |  |  | inhibition of thymidylate synthase (thymidylate synthase): inhibition of thymidylate synthase; decrease in DNA 5-methylcytosine levels (DNA 5-methylcytosine): dramatic decreases in DNA 5-methylcytosinelevels; relation of DNA incorporation to cytotoxicity (cellular DNA): level of FdC incorporation is proportional to cytotoxicity |
| O=c1[nH]cc(F)c(=O)[nH]1 [fluorouracil, 5-fluorouracil, reference compound] |  |  |  |  |  |  |  | EC50 (CCRF-CEM cells; CCRF-CEM): 5000 nM |
| Cc1cn([C@H]2C[C@H](N=[N+]=[N-])[C@@H](CO)O2)c(=O)[nH]c1=O [AZT] |  |  |  |  |  |  |  | increased lipophilicity over dT [4]: 20 fold; cell entry [5]: can enter human erythrocytes and lymphocytes by nonfacilitated diffusion |
| O=c1[nH]c(=O)n([C@H]2C[C@H](O)[C@@H](CO)O2)cc1F [FdU (1), reference compound] |  | 8.9 nM |  |  |  |  | cleavage via plasma thymidine phosphorylase | logD ([1]; pH 7): -1.28 |

Now from value to compound, other results behind:

| logD [1, 6] | EC50 (CCRF-CEM cells; [7]) | dependence of hydrolysis rate on hydroxide concentration [2] | half-life at 150 µM [2] | lipophilicity relative to FdU ([1]; pH 7) | SMILES | conversion to FdU in aqueous solution [2] | catabolism via plasma thymidine phosphorylase [3] | also measured |
| --- | --- | --- | --- | --- | --- | --- | --- | --- |
| -0.62 | 1800 nM | proportional to [^- OH] | 2.2 h | 4.5 fold | COc1nc(=O)n([C@H]2C[C@H](O)[C@@H](CO)O2)cc1F [4-methoxyFdU (4a), 4-Methoxy, 5-fluoro, 2'-deoxyuridine] | converted quantitatively to FdU in aqueous solution | neither deoxycytidine derivatives^25 nor 4-methoxy-5-fluoro-2'deoxyuridine^26 are catabolized via this pathway |  |
| -0.108 | 1800 nM | proportional to [^- OH] | 12.5 h | 14.7 fold | CCOc1nc(=O)n([C@H]2C[C@H](O)[C@@H](CO)O2)cc1F [4-ethoxyFdU (4b), 4-Ethoxy, 5-fluoro, 2'-deoxyuridine] | converted quantitatively to FdU in aqueous solution |  | half-life ([2]; water, pH 11, aqueous solution, read-out: half life for the conversion to FdU (converted)): 12.5 h |
